From PMC2386736 (Protein Science : A Publication of the Protein Society, 2009)
Where two headings read alike, the source gives them in different places.

Legend:
Assay type in all cases: biochemical
SENP2 [1] = target: T1, SENP2 (Homo sapiens, UniProt Q9HC62)
T1 sequence (Q9HC62 366-589): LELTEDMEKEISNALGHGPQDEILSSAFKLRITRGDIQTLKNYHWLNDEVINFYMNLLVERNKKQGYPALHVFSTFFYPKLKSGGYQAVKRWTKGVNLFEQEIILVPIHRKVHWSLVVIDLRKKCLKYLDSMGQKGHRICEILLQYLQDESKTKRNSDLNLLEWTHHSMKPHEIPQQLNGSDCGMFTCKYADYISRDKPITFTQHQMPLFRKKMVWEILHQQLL

USP2 [2] = target: T2, USP2 (Homo sapiens, UniProt O75604)
USP7 [3] = target: T3, USP7 (Homo sapiens, UniProt Q93009)
USP7 [4] = target: T3, USP7; assay: Ub-PLA2 / NBD C6-HPC coupled fluorescence isopeptidase assay
USP2 [5] = target: T2, USP2; assay: as above
SENP2 [6] = target: T1, SENP2; assay: SUMO3-PLA2 / NBD C6-HPC coupled fluorescence isopeptidase assay

T2 sequence (O75604 259-605): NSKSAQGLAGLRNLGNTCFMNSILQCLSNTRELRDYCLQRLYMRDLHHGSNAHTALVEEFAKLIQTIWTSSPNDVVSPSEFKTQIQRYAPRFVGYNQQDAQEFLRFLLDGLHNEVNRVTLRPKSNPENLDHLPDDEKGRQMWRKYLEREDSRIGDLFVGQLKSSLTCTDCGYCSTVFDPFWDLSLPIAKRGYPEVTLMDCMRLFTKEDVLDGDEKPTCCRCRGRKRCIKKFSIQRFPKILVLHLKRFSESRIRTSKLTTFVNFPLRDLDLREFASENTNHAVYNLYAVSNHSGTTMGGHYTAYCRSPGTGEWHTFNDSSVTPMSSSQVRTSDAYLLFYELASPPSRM
T3 sequence (Q93009 whole entry): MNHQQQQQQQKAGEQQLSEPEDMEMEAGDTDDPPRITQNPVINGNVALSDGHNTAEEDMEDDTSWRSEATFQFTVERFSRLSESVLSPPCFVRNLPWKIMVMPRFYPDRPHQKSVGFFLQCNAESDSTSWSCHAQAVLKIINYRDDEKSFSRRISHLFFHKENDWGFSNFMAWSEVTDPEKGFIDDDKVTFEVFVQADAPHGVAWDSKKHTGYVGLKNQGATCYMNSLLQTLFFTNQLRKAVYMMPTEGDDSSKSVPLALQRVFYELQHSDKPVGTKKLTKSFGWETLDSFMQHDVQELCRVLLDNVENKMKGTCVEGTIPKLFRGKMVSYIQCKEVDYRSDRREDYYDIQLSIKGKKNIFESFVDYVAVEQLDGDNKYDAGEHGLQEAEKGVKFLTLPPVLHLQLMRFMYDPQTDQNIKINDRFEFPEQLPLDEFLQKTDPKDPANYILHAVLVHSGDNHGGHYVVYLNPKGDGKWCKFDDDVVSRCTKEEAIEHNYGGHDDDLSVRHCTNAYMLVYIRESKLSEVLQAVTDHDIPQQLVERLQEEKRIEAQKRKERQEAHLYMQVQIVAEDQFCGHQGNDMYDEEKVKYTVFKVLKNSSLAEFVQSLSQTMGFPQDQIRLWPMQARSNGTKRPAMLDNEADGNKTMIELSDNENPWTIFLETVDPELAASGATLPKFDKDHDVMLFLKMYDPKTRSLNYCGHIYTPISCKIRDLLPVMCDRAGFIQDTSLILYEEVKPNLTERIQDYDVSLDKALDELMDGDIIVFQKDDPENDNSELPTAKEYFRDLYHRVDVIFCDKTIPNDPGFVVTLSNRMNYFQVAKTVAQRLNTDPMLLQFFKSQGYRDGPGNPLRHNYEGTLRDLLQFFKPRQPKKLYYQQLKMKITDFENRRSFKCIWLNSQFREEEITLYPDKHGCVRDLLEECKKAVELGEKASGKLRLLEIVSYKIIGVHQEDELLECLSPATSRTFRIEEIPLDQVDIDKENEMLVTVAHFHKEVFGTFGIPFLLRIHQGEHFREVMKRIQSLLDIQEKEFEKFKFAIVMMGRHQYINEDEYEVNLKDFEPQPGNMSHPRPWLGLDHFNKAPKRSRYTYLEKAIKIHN

Row | EC50 (SENP2 [1]) [µM] | EC50 (USP2 [2]) [µM] | EC50 (USP7 [3]) [µM] | EC50 (USP7 [4]) [µM] | EC50 (USP2 [5]) [µM] | EC50 (SENP2 [6]) [µM] | Compound
1 | 9.8 ± 1.8 | 45 ± 4 | 37 ± 1 |  |  |  | Cc1ccc(/C=C2\CNC/C(=C\c3ccc(C)cc3)C2=O)cc1 [NSC 632839]
2 |  |  |  | 1400 ± 70 | 1900 ± 200 | 1300 ± 200 | CCN1C(=O)C=CC1=O [N‐Ethylmaleimide]
